According to US20090143434A1 (priority 2007, published 2009):

Legend:
[1] = target: hCav1.2 (Homo sapiens, UniProt Q13936); experiment: voltage clamp currents in mammalian cells stably transfected with cloned ion channel cDNA, hCav1.2; type: cell-based
Source text: (§1) Nonlinear least squares fits of the current ratio data yielded the best fit value for the IC50 concentration. A positive control was included for each channel tested in the study.

[2] = target: T1, hERG (Homo sapiens, UniProt Q12809); experiment: voltage clamp currents in mammalian cells stably transfected with cloned ion channel cDNA, hERG; type: cell-based
T1 construct: expressed in transfected cells
Source text: as §1

[3] = target: hNav1.5 (Homo sapiens, UniProt Q14524); experiment: voltage clamp currents in mammalian cells stably transfected with cloned ion channel cDNA, hNav1.5; type: cell-based
Source text: as §1

[4] = target: T2, hKv4.3 (Homo sapiens, UniProt Q9UK17); experiment: voltage clamp currents in mammalian cells stably transfected with cloned ion channel cDNA, hKv4.3; type: cell-based
T2 construct: expressed in transfected cells
T2 sequence (Q9UK17 1-655): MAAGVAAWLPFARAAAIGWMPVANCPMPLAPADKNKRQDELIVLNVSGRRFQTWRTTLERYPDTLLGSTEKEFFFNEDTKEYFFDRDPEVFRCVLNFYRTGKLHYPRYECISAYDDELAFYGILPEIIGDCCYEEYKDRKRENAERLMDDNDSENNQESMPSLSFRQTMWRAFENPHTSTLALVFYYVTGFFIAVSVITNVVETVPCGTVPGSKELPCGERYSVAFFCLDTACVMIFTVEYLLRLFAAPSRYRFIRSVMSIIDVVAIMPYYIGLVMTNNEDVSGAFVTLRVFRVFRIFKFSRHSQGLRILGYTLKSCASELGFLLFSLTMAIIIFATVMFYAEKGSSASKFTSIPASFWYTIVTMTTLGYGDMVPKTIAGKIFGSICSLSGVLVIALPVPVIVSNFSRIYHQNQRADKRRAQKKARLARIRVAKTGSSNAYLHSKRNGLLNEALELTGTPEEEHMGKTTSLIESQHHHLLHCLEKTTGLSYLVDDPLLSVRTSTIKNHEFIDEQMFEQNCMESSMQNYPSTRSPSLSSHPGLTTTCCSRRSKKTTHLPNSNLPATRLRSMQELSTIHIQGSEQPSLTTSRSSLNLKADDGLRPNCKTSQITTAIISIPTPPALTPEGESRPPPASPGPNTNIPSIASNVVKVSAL
Source text: as §1

[5] = target: hKv1.3 (Homo sapiens, UniProt P22001); experiment: voltage clamp currents in mammalian cells stably transfected with cloned ion channel cDNA, hKv1.3; type: cell-based
Source text: as §1

[6] = target: T3, hKv1.1 (Homo sapiens, UniProt Q09470); experiment: voltage clamp currents in mammalian cells stably transfected with cloned ion channel cDNA, hKv1.1; type: cell-based
T3 construct: expressed in transfected cells
T3 sequence (Q09470 whole entry): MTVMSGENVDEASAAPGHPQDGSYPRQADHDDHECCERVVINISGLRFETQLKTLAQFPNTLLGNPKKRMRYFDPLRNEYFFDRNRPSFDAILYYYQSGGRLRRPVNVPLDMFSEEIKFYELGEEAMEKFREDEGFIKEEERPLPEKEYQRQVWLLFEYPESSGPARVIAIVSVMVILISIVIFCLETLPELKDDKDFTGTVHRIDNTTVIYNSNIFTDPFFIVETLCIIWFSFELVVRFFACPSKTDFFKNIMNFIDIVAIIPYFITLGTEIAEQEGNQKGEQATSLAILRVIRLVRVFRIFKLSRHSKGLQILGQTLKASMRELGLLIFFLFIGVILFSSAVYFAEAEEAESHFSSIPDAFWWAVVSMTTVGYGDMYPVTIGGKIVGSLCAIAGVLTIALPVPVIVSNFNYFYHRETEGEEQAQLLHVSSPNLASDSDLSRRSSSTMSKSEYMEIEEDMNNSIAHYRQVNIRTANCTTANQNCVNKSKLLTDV
Source text: as §1

[7] = target: T4, hHCN4 (Homo sapiens, UniProt Q9Y3Q4); experiment: voltage clamp currents in mammalian cells stably transfected with cloned ion channel cDNA, hHCN4; type: cell-based
T4 construct: expressed in transfected cells
T4 sequence (Q9Y3Q4 1-1203): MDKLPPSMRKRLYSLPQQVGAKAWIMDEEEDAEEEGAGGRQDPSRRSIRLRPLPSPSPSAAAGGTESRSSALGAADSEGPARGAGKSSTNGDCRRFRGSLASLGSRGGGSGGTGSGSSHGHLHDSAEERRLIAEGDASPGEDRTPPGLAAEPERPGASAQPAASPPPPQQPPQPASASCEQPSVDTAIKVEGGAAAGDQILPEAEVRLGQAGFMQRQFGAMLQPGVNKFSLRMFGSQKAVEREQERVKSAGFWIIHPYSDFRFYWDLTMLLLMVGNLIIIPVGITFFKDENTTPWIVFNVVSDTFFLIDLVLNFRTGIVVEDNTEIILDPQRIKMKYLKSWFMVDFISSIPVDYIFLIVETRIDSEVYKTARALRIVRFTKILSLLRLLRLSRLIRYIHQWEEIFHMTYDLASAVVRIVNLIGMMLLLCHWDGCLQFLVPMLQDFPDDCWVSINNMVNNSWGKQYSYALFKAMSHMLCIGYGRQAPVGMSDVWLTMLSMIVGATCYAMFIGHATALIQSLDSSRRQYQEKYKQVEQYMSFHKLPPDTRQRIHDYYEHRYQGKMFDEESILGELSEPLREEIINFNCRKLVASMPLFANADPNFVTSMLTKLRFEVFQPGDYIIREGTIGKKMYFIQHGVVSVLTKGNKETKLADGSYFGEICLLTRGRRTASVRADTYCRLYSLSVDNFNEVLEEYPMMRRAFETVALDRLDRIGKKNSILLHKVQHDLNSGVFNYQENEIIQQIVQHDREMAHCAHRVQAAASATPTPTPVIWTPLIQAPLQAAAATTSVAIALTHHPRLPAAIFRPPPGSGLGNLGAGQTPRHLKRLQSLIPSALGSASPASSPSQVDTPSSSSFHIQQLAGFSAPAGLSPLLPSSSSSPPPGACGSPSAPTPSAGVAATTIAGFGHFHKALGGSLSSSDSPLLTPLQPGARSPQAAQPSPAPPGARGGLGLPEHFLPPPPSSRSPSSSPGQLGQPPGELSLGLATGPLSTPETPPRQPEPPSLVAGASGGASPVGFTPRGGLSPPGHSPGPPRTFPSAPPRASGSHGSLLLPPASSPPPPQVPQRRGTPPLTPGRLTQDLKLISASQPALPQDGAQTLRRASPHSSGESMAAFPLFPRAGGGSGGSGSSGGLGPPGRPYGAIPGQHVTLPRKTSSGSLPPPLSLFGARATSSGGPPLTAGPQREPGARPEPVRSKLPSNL
Source text: as §1

[8] = target: T5, hNav1.3 (Homo sapiens, UniProt Q9NY46); experiment: voltage clamp currents in mammalian cells stably transfected with cloned ion channel cDNA, hNav1.3; type: cell-based
T5 construct: expressed in transfected cells
T5 sequence (Q9NY46 whole entry): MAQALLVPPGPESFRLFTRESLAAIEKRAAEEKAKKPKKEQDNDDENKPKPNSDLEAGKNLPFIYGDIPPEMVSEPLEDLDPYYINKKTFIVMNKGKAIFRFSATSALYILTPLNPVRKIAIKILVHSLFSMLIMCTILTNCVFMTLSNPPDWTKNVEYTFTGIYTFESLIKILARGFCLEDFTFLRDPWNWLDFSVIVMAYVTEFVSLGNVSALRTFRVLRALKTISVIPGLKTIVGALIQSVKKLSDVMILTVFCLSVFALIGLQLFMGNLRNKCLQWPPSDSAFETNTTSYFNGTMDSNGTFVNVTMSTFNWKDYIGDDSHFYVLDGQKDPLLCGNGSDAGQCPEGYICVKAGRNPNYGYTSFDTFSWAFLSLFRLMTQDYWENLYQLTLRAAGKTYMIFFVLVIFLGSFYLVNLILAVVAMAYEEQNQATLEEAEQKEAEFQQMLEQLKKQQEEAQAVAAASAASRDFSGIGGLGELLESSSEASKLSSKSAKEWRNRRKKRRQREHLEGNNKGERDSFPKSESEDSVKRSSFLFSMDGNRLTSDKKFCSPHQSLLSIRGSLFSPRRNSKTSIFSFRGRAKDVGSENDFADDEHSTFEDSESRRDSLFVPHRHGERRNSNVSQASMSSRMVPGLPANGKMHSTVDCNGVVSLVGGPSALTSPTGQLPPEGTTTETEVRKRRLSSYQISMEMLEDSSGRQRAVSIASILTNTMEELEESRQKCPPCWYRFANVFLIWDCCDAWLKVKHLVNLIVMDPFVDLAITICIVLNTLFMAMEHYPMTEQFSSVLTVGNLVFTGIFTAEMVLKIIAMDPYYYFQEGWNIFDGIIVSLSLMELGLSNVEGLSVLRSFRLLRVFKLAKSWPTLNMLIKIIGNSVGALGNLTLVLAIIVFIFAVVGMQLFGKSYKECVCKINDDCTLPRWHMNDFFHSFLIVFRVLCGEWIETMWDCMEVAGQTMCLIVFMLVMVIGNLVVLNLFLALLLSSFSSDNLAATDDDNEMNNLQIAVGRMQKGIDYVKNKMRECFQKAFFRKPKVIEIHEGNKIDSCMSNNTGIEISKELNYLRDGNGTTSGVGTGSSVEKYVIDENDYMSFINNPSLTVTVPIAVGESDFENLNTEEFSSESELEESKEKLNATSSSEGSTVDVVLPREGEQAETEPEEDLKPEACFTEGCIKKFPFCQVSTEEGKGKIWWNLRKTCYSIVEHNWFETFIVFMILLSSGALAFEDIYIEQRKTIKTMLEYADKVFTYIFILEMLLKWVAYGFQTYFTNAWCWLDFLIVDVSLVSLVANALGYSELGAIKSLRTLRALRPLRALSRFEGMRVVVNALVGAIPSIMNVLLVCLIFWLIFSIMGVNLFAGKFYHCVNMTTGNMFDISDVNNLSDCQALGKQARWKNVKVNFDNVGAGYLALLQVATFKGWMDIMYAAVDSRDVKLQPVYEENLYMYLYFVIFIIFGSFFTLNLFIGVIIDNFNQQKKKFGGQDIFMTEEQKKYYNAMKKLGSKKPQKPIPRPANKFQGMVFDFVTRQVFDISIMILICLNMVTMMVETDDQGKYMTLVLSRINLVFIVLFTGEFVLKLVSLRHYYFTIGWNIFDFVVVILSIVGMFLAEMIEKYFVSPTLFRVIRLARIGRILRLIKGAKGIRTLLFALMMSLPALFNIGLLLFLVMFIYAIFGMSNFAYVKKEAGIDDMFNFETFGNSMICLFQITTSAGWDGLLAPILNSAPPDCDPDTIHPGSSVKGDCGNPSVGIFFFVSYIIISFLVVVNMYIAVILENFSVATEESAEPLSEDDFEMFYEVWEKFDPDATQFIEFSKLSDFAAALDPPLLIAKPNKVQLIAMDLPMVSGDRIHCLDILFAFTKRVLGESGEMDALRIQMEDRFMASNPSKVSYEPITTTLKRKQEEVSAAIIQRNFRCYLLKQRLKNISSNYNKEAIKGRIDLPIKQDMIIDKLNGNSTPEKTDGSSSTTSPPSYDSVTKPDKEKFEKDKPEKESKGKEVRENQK
Source text: as §1

[9] = target: hCav3.2 (Homo sapiens, UniProt O95180); experiment: cell-based
Sequence of hCav3.2 (O95180 whole entry): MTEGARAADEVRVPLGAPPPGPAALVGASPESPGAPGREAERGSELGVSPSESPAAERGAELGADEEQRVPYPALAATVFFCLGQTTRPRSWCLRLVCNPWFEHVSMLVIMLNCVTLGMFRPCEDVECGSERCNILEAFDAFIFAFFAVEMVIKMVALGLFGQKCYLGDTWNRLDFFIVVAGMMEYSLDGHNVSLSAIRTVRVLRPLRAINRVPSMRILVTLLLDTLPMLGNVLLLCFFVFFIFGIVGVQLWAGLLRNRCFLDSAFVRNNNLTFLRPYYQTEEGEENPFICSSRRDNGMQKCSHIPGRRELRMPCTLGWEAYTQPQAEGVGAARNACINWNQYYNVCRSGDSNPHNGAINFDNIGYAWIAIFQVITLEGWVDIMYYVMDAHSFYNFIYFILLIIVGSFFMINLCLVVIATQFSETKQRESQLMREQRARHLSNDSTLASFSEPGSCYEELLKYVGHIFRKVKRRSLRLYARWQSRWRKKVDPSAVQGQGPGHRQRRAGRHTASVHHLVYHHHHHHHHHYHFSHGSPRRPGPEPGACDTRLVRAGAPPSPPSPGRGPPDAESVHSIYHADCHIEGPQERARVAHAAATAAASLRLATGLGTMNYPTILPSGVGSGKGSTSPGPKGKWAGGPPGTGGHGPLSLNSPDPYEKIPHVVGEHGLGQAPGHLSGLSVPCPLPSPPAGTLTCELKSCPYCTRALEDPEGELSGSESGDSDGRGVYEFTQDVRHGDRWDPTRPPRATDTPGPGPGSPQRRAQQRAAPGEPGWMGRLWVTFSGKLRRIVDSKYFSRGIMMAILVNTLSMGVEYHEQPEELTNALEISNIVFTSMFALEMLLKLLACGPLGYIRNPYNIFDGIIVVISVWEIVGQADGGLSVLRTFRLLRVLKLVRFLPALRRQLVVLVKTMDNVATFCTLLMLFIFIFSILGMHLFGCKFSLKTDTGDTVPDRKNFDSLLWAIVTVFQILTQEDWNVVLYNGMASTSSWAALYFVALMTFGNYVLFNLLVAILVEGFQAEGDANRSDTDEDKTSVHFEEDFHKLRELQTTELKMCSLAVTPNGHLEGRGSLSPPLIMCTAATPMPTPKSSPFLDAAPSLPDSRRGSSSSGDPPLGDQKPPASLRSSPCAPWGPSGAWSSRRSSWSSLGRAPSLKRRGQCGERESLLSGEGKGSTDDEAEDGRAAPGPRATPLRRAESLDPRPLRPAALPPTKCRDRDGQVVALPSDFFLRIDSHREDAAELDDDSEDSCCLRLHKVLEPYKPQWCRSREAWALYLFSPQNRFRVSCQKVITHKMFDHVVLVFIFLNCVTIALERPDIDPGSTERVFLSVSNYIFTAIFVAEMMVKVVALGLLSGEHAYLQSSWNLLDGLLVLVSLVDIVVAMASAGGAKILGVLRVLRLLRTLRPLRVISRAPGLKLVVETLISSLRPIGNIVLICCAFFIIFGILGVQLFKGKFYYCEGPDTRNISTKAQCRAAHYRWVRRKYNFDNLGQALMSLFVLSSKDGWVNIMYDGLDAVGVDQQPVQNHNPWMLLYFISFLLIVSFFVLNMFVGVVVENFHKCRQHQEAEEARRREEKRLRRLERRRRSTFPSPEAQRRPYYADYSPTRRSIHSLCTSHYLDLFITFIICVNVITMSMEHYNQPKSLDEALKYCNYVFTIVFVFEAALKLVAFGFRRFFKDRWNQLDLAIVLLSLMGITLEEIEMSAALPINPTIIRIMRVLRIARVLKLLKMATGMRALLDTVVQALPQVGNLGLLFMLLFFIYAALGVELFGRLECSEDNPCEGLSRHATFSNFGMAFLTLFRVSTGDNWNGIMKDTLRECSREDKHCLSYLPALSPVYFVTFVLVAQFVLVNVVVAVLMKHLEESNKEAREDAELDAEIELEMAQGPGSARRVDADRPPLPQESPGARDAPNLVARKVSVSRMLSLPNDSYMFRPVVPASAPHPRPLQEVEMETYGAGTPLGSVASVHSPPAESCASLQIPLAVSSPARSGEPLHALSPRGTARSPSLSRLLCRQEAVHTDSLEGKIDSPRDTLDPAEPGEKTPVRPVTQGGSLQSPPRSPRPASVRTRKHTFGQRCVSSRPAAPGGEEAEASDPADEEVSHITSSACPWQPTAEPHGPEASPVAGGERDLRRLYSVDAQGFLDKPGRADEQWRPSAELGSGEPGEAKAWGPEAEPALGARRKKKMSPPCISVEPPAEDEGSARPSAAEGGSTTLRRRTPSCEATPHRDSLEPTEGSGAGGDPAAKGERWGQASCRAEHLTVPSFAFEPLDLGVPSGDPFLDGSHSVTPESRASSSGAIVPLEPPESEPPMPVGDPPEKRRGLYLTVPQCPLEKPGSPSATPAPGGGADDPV
Source text: as §1

[10] = 0.1 Hz, read-out: Estimated IC50 at 0.1 Hz

## O=c1[nH]c2ccccc2n1CCCN1CCC(n2c(=O)[nH]c3cc(Cl)ccc32)CC1 [domperidone, 1,3-dihydro-5-chloro-1-(1-(3-(2,3-dihydro-2-oxo-1H-benzimidazol-1-yl)propyl)-4-piperidinyl)-2H-benzimidazol-2-one]
[1]; 1 μM, 3 Hz
  % Block at 1 μM/3 Hz: 49.6%
[1]; 10 μM, 0.1 Hz
  % Block at 10 μM/0.1 Hz: 9%
[2]; 1 μM, 3 Hz
  % Block at 1 μM/3 Hz: 98.0%
[2]; 10 μM, 0.1 Hz
  % Block at 10 μM/0.1 Hz: 95.5%
[3]; 1 μM, 3 Hz
  % Block at 1 μM/3 Hz: 23.7%
[3]; 10 μM, 0.1 Hz
  % Block at 10 μM/0.1 Hz: 37.3%
[4]; 10 μM
  % Block at 10 μM/0.1 Hz: 0.5%
[4]; [10]
  IC50: 1990 µM
[5]; 10 μM
  % Block at 10 μM/0.1 Hz: 17.6%
[5]; [10]
  IC50: 46.8 µM
[6]; 10 μM
  % Block at 10 μM/0.1 Hz: 1.9%
[6]; [10]
  IC50: 516 µM
[7]; 10 μM
  % Block at 10 μM/0.1 Hz: 20.3%
[7]; [10]
  IC50: 30.3 µM
[8]; 10 μM
  % Block at 10 μM/0.1 Hz: 4.6%
[8]; [10]
  IC50: 207 µM
[9]; Estimated IC50 at 0.1 Hz, 0.1 Hz
  IC50: 10.2 µM
[9]; Estimated IC50 at 3 Hz, 3 Hz
  IC50: 1.22 µM
